Results from publication PMC3269340, “Pharmacokinetics of memantine in rats and mice” (PLoS Currents, 2012).

Key:
OATP2B1 = molecular target: T1, OATP2B1 (Homo sapiens, UniProt O94956); test: Direct uptake transporter assay, OATP2B1; type: in vitro ADME; details: for Accumulation in transporter transfected cells: OATP2B1-transfected cells; for Accumulation in parental cells: parental MDCKII cells (OATP2B1 line)
T1 construct: expressed in transfected cells; host or cells: MDCKII cells
T1 sequence (O94956 1-709): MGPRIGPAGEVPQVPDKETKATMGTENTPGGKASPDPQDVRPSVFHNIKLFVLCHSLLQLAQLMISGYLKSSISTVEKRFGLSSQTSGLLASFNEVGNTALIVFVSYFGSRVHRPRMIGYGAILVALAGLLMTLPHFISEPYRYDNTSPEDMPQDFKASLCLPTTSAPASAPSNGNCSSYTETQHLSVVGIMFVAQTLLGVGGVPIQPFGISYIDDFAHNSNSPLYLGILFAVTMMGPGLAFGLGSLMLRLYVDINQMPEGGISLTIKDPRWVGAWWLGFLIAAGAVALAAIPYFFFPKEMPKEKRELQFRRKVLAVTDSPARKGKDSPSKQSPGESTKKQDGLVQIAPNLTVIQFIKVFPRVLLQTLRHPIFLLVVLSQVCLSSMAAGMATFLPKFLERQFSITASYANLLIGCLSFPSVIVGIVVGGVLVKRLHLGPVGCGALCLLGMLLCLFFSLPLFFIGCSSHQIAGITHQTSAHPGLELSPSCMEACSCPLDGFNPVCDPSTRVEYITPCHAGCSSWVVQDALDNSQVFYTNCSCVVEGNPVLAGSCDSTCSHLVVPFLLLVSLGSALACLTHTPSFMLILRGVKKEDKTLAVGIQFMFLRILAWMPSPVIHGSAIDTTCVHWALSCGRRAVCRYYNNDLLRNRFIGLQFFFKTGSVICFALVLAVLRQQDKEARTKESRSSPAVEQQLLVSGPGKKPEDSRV
Description: To determine whether memantine is a substrate of the human OATP2B1 (OATP-B), OCT1, OCT2, OAT3, PEPT1, PEPT2 uptake transporters.
The potential for memantine to be a substrate of an uptake transporter was determined directly by comparing the uptake of memantine into cells expressing the selected uptake transporter with its uptake into control cells. Memantine was added to transporter-expressing and control cells at two concentrations (PEPT1 and PEPT2 100 and 300 µM, OCT1 and OCT2 50 and 100 µM, OATP2B1 100 and 300 µM), and incubated with cells for 2 and 20 min at 37±1°C (75 µL final incubation volume). […] Incubations were carried out as described in the indirect uptake transporter assays. The concentration of memantine was determined by LC-MS/MS.

rat AD model = details: cited from earlier work

## CC12CC3CC(C)(C1)CC(N)(C3)C2 [memantine]
OATP2B1
  substrate of OATP2B1 uptake transporter: appeared to be a substrate
OATP2B1; OATP2B1
  accumulation in transporter-transfected cells higher than in parental cells: > 1.5 fold
OATP2B1; OATP2B1, 300 µM, 20 min
  Highest Fold Activation: 2.1 (300 µM, 20 min)
OATP2B1; 2 min, 100 µM
  Accumulation in transporter transfected cells: 11317 pmol/mg
  Accumulation in parental cells: 6409 pmol/mg
OATP2B1; 2 min, 300 µM
  Accumulation in transporter transfected cells: 18296 pmol/mg
  Accumulation in parental cells: 10891 pmol/mg
OATP2B1; 20 min, 100 µM
  Accumulation in transporter transfected cells: 20820 pmol/mg
  Accumulation in parental cells: 10889 pmol/mg
OATP2B1; 20 min, 300 µM
  Accumulation in transporter transfected cells: 45866 pmol/mg
  Accumulation in parental cells: 21496 pmol/mg
Rat AD model
  cognition: improved cognition
  neuroprotection: elicited neuroprotective effects
